In US20050228041A1, “Protective and therapeutic uses for tocotrienols” (priority 2003, published 2005):
Entries after “also recorded” stand apart in the source; their conditions may differ.

Assays:
HT4 neurons = assay: Glutamate-induced death of HT4 neurons (propidium iodide exclusion flow cytometry, cell counts); assay type: cell-based, mouse
Protocol: (§1) Referring to FIG. 1, primary rat immature cortical neurons (A-C) or HT4 (D) were either treated or not with α-tocotrienol (as indicated) for 5 min and challenged with either glutamate (10 mM; A); L-homocysteic acid (1 mM; B); or buthionine sulfoximine (0.15 mM; BSO) for 24 h. […] Cells were counted at 12, 24 and 36 h after glutamate challenge.
(§2) First, we tested for the involvement of 12-LOX in the execution of glutamate-induced death in our model. We started by using the 12-LOX specific inhibitor baicalein or BL15. Referring to FIG. 3, HT4 neurons (A) were either treated or not with a-tocotrienol (250 nM) or […] (2.5 μM, 12-lipoxygenase inhibitor) for 5 min and then challenged with glutamate (10 mM). Cell viability was determined using propidium iodide (PI) exclusion flow cytometry assay. PI−=live; PI+=dead. Rat primary immature cortical neurons (B-D) were either treated or not with α-tocotrienol (100 nM) or BL15 (2.5 μM) for 5 min and challenged either with glutamate (10 mM; B); L-homocysteic acid (1 mM; C) or buthionine sulfoximine (0.15 mM; BSO; D) for 24 h. Arachidonic acid, 50 μM for 24h. BL15, Baicalein 5,6,7-trihydroxy-flavone.
(§3) Cell culture. Mouse hippocampal HT4 cells, were grown in Dulbecco's Modified Eagle Medium supplemented with 10% fetal calf serum, penicillin (100 U/ml) and streptomycin (100 μg/ml) at 37° C. in a humidified atmosphere containing 95% air and 5% CO2. HT4 cells were provided by Dr. D. E. Koshland Jr. (University of California at Berkeley) (Sen et al., 2000). Primary cortical neurons. Cells were isolated from the cerebral cortex of rat feti (Sprague Dawley; day 17 of gestation) or mouse feti (C57BL/6 mice, day 14 of gestation) as described (Murphy et al., 1990). For 12-LOX knockout studies, neurons were isolated from the feti of B6.129S2-Alox15^tm1Fun (Jackson Laboratory, […].). After isolation from the brain, cells were counted and seeded in culture plates at a density of 2-3×10^6 cells per 35 mm plate (Murphy et al., 1990). Cells were grown in Minimal Essential Medium (MEM) supplemented with 10% heat-inactivated fetal bovine serum, 40 μM cystine and antibiotics (100 μg/ml streptomycin, 100 units/ml penicillin, 0.25 μg/ml amphotericin). Cultures were maintained at 37° C. in 5% CO2 and 95% air in a humidified incubator. All experiments were carried out 24 h after plating.
(§4) Treatment with neurotoxic agents. Immediately before experiments, culture media was replaced with fresh medium supplemented with serum and antibiotics. Glutamate (10 mM) was added to the media as aqueous solution (Han et al., 1997a; Sen et al., 2000; Tirosh et al., 2000). […] Other agents used to induce death in neuronal cells have been described in the pertinent figure legends.
(§5) Vitamin E treatment. Stock solutions (10^3X of working concentration) of α-tocotrienol was prepared in ethanol. […]
(§6) Determination of cell viability. Viability of HT4 cells was determined using propidium iodide exclusion assay using the flow cytometer as described by us previously (Sen et al., 2000; Tirosh et al., 2000). Because primary neuronal cultures tend to aggregate during flow cytometry, the viability of these cells was assessed by measuring lactate dehydrogenase (LDH) leakage (Han et al., 1997a) from cells to media 24 h following glutamate treatment using in vitro toxicology assay kit from Sigma Chemical Co. (St. Louis, Mo., USA). […]

[1] = system: primary rat immature cortical neurons; assay: Neurotoxin-induced loss of viability of primary immature cortical neurons (LDH leakage); assay type: cell-based; settings: 24 h
Protocol: as §1, §2, §3, §4, §5, §6

[2] = system: rat primary cortical neurons; assay: Imaging of glutamate-induced degeneration of rat primary cortical neurons (immunofluorescence, live cell imaging); assay type: cell-based; settings: glutamate 10 mM; α-tocotrienol 250 nM or BL15 2.5 μM 5 min before
Protocol: Phase contrast images were collected once every 15 mins for 18 h from 8 h after glutamate treatment.
For immunofluorescence microscopy, primary cultures of rat cortical neurons were plated on 35 mm plates pre-coated with poly-L-lysine. After 24 h, cell were treated with α-tocotrienol or BL15 for 5 minutes and then challenged with glutamate or exposed to glutamate. After 24 h of glutamate exposure, cells were washed thrice in PBS, fixed for 10 minutes at room temperature in 4% paraformaldehyde, and permeabilized with PBS-T (PBS containing 0.2% Triton X-100) for 20 minutes at room temperature. Samples were then rinsed 3× with PBS-T and blocking (2% BSA in PBS-T) was done for 1 h at room temperature. After blocking, samples were incubated overnight at 4° C. with the primary antibody (anti-neurofilament 200 (1:100, Sigma St. Louis, Mo.) or neuronal class III α-tubulin (1:500, Covance Berkeley, Calif.)}. After washing with PBS (3×, 5 min each), the samples were incubated with Alexa Fluor 488 conjugated goat anti-mouse or anti-rabbit (Molecular Probes Eugene, Oreg.) secondary antibody for 45 minutes at room temperature. This was followed by three PBS washes, and mounting in aqueous medium. Fluorescent images were collected using a Zeiss Axiovert 200M microscope. Images were acquired using Axiovision 3.1.
For live cell imaging, primary cultures of rat cortical neurons were plated on 35 mm plates pre-coated with poly-L-lysine. […] Images were collected once every 15 minutes using a specialized phase contrast Zeiss optics suited for imaging cells growing in routine culture plates.

primary neurons = assay: Cellular glutathione (GSH) in glutamate-treated primary neurons (HPLC-coulometric); assay type: cell-based, rat; settings: glutamate 10 mM; α-tocotrienol 100 nM or BL15 2.5 μM
Protocol: as §2, with “5,6,7-trihydroxy-flavone. […] B-E: †, lower compared to the corresponding control non-treated group; *, higher compared to the corresponding toxin-treated group. P<0.05.” for “5,6,7-trihydroxy-flavone.”
Glutathione assay. Glutathione (GSH) was detected using a HPLC-coulometric electrode array detector (Coularray Detector—model 5600 with 12 channels; ESA Inc., Chelmsford, Mass.). […] Glutathione was detected at channels set at following potentials: I) 600 mV, II) 700 mV; and II) 800 mV. Signals from channel set at 800 mV were used for quantification (Sen et al., 2002).

alphaTTP = target: T1, alphaTTP (Rattus norvegicus, UniProt P41034); settings: competition with alpha-[3H]tocopherol; FEBS Lett 1997; cited from earlier work
T1 sequence (P41034 1-278): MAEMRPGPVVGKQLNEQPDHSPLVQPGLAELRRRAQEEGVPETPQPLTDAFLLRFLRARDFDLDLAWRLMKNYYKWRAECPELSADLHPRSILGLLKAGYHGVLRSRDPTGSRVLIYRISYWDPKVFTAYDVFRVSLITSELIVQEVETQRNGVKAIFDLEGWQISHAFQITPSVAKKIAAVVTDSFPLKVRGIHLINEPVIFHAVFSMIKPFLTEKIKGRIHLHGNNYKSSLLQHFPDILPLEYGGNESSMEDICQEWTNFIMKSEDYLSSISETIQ

[3] = target: T2, hydroxy-3 methylglutaryl coenzyme A reductase (Homo sapiens, UniProt P04035); settings: micromolar amounts; Pearce et al.; cited from earlier work
T2 sequence (P04035 1-888): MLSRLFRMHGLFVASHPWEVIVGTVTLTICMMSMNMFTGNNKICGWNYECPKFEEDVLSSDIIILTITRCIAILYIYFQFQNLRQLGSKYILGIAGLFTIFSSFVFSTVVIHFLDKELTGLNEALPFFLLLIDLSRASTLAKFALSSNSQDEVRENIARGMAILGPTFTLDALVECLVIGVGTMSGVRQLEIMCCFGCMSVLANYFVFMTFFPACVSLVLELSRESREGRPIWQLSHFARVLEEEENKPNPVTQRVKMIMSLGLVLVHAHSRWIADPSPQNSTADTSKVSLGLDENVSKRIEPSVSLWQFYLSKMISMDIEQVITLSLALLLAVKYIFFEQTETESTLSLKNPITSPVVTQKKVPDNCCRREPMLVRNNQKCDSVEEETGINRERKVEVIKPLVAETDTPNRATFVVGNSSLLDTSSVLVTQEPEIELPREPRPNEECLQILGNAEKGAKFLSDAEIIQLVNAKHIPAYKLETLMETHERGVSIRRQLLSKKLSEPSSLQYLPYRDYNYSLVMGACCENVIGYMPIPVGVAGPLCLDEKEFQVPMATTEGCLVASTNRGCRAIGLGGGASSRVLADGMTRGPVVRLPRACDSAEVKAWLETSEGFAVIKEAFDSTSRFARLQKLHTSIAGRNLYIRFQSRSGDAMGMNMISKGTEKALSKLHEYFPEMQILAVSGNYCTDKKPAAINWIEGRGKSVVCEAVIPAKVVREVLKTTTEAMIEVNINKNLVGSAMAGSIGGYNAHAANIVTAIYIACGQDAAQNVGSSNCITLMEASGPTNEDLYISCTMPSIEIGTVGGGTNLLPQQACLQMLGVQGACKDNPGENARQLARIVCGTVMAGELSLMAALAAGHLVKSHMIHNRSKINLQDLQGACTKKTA

[4] = system: primary cardiac fibroblatsts (CF) isolated from adult mouse ventricle; assay: Cardiac fibroblast death induced by arachidonic acid + buthionine sulfoximine (phase contrast imaging); assay type: cell-based; settings: arachidonic acid 50 microM + BSO, 250 nM tocotrienol, 24 h, 5% O2
Protocol: Assays were performed using primary cardiac fibroblatsts (CF) isolated from adult (5-6 week old) mouse ventricle. Cells were cultured under 5% O2 conditions. Five days after isolation cells were treated with arachidonic acid (50 microM)+buthionine sulfoximine in the presence or absence of 250 nM tocotrienol for 24h. Phase contrast imaging was performed using a Zeiss live cell imaging microscope.
Referring to FIG. 8, isolated cardiac fibroblasts cells were treated five days after isolation with arachidonic acid (AA)(50 microM)±buthionine sulfoximine (BS)) in the presence or absence of 250 nM tocotrienol (T3) for 24 hours. Phase contrast imaging was performed using a Zeiss live cell imaging microscope.

TTP knock-out mice = assay: Fertility of tocopherol transport protein (TTP) knock-out mice; settings: mouse, in vivo
From the text: The uptake and transport of dietary or pharmaceutically supplemented tocopherol from the gut to various parts of the body is directed by TTP. In order to understand and distinguish the important roles of tocopherols and tocotrienols in mammals, knock out mice have been produced in which expression of TTP has been ablated. Interruption of TTP results in loss of fertility in these mice which make it impossible to breed and thus maintain the line for further study.

Row | Compound | protection against glutamate induced death of HT4 cells (HT4 neurons; glutamate 10 mM, BL15 2.5 μM 5 min before) | protection of primary neurons against toxicity triggered by L-homocysteic acid or BSO ([1]; L-homocysteic acid 1 mM or BSO 0.15 mM, BL15 2.5 μM 5 min before) | protection against glutamate-induced death of primary neurons ([1]; glutamate 10 mM, α-tocotrienol 100 nM or BL15 2.5 μM 5 min before) | glutamate-induced degeneration of the neural network and neuronal growth [2] | cellular glutathione (GSH) in protected glutamate-treated primary neurons (primary neurons) | protection against glutamate-induced toxicity / loss of cell viability of HT4 (HT4 neurons; glutamate 10 mM, tocotrienol 100 nM (nM levels) 5 min before) | proliferation / growth rate of glutamate-treated HT4 cells (HT4 neurons; tocotrienol 100 nM (nM levels), cells counted 12, 24 and 36 h after glutamate) | relative affinity of alpha TTP (alphaTTP) | activity of hydroxy-3 methylglutaryl coenzyme A reductase [3] | cell death induced by AA+BSO [4] | fertility of TTP knock-out mice (TTP knock-out mice)
1 | O=c1cc(-c2ccccc2)oc2cc(O)c(O)c(O)c12 [BL15, 5,6,7-trihydroxy-flavone, reference compound] | clearly protected | protected | protected neurons against glutamate challenge; also recorded: clearly protected | protection | loss of cellular glutathione; also recorded: lowered GSH levels |  |  |  |  |  | 
2 | tocotrienol |  |  |  |  |  | prevented glutamate-induced toxicity | proliferate at a rate comparable to cells not treated with glutamate | relatively low affinity | suppress the activity | completely blocked cell death | reversal of TTP-dependent infertility
